Laboratory results reported in ChEMBL document CHEMBL3098003, “Structure-based design of 2-aminopyridine oxazolidinones as potent and selective tankyrase inhibitors” (ACS Med Chem Lett, 2013).
Activity calls are given as the source filed them. No cut-off for these calls is given here.

Legend:
[1] = biological target: Non-receptor tyrosine-protein kinase TYK2 (Homo sapiens) (UniProt P29597); test: Inhibition of TYK2 (unknown origin) at 1 uM after 1 hr
[2] = biological target: Tyrosine-protein kinase Lck (Homo sapiens) (UniProt P06239); test: Inhibition of LCK (unknown origin) at 1 uM after 1 hr
[3] = Cmax in CD1 mouse at 30 mg/kg, po; assay type: ADME, organism-based; set-up: dose 30 mg/kg, route oral; conditions: in vivo
[4] = biological target: TGF-beta receptor type-2 (Homo sapiens) (UniProt P37173); test: Inhibition of TGFBR2 (unknown origin) at 1 uM after 1 hr
Chain of TGF-beta receptor type-2 (Homo sapiens) (P37173 whole entry): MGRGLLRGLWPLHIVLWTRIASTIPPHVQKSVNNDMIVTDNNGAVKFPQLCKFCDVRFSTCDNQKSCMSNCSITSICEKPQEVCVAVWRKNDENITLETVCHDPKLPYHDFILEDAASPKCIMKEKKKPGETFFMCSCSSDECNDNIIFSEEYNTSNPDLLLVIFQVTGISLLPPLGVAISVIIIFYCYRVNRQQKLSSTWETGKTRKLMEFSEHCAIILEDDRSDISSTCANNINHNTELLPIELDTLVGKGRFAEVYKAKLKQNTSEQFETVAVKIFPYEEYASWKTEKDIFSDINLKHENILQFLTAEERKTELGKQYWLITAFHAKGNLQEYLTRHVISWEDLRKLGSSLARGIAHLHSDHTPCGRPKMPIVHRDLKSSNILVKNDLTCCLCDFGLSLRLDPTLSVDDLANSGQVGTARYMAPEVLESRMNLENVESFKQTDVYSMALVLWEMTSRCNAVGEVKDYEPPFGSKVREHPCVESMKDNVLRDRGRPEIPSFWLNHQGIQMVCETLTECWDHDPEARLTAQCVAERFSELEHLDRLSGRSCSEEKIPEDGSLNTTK

[5] = biological target: Serine/threonine-protein kinase D2 (Homo sapiens) (UniProt Q9BZL6); test: Inhibition of PRKD2 (unknown origin) at 1 uM after 1 hr
[6] = biological target: Poly [ADP-ribose] polymerase 1 (Homo sapiens, UniProt P09874); test: Inhibition of PARP1 (unknown origin)
[7] = biological target: Poly [ADP-ribose] polymerase 2 (Homo sapiens, UniProt Q9UGN5); test: Inhibition of PARP2 (unknown origin)
[8] = biological target: Serine/threonine-protein kinase 3 (Homo sapiens) (UniProt Q13188); test: Inhibition of STK3 (unknown origin) at 1 uM after 1 hr
[9] = biological target: Death-associated protein kinase 1 (Homo sapiens) (UniProt P53355); test: Inhibition of DAPK1 (unknown origin) at 1 uM after 1 hr
[10] = Cmax in Sprague-Dawley rat at 2 mg/kg, po; assay type: ADME, organism-based; set-up: dose 2 mg/kg, route oral; conditions: in vivo
[11] = biological target: Interleukin-1 receptor-associated kinase 4 (Homo sapiens) (UniProt Q9NWZ3); test: Inhibition of IRAK4 (unknown origin) at 1 uM after 1 hr
[12] = biological target: Calcium/calmodulin-dependent protein kinase type II subunit delta (Homo sapiens) (UniProt Q13557); test: Inhibition of CAMK2D (unknown origin) at 1 uM after 1 hr
[13] = biological target: Casein kinase I isoform delta (Homo sapiens) (UniProt P48730); test: Inhibition of CSNK1D (unknown origin) at 1 uM after 1 hr
[14] = biological target: Ribosomal protein S6 kinase alpha-1 (Homo sapiens) (UniProt Q15418); test: Inhibition of RPS6KA1 (unknown origin) at 1 uM after 1 hr
[15] = Elimination half life in Sprague-Dawley rat at 0.5 mg/kg, iv; assay type: ADME, organism-based; set-up: dose 0.5 mg/kg, route intravenous; conditions: in vivo, read-out: beta t1/2 (converted)
[16] = biological target: Serine/threonine-protein kinase Nek4 (Homo sapiens) (UniProt P51957); test: Inhibition of NEK4 (unknown origin) at 1 uM after 1 hr
[17] = biological target: Serine/threonine-protein kinase PLK4 (Homo sapiens) (UniProt O00444); test: Inhibition of PLK4 (unknown origin) at 1 uM after 1 hr
Chain of Serine/threonine-protein kinase PLK4 (Homo sapiens) (O00444 whole entry): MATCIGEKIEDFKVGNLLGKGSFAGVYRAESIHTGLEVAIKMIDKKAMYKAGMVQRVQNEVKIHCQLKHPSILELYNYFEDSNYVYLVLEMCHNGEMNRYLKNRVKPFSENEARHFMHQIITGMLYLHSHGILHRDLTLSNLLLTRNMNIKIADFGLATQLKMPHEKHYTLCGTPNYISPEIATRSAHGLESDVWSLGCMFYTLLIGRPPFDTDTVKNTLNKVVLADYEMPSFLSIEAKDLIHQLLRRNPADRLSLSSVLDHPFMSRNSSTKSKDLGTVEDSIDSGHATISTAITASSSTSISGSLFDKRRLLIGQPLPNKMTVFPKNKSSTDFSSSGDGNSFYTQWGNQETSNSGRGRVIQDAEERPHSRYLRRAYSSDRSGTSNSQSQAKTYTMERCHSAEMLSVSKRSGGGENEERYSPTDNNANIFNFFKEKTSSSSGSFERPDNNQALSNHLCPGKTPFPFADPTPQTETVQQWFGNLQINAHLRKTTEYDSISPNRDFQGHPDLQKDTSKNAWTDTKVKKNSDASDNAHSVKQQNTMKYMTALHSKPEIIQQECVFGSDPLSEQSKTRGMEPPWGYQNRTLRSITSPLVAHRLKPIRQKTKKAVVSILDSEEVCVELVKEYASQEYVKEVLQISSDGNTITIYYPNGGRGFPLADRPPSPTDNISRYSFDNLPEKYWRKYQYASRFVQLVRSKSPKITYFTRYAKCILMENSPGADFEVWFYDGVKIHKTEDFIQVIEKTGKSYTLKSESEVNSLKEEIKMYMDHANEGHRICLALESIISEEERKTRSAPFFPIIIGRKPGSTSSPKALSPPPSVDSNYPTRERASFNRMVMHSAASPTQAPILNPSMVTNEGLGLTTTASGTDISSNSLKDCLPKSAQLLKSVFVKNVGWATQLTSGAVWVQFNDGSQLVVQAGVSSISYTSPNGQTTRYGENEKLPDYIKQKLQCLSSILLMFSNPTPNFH

[18] = AUC in Sprague-Dawley rat at 2 mg/kg, po; assay type: ADME, organism-based; set-up: dose 2 mg/kg, route oral; conditions: plasma
[19] = biological target: Ephrin type-B receptor 3 (Homo sapiens) (UniProt P54753); test: Inhibition of EPHB3 (unknown origin) at 1 uM after 1 hr
[20] = biological target: Interferon-induced, double-stranded RNA-activated protein kinase (Homo sapiens) (UniProt P19525); test: Inhibition of EIF2AK2 (unknown origin) at 1 uM after 1 hr
[21] = biological target: Phosphatidylinositol 4,5-bisphosphate 3-kinase catalytic subunit delta isoform (Homo sapiens) (UniProt O00329); test: Inhibition of PIK3CD (unknown origin) at 1 uM after 1 hr
[22] = biological target: Tyrosine-protein kinase Fyn (Homo sapiens) (UniProt P06241); test: Inhibition of FYN (unknown origin) at 1 uM after 1 hr
Salmonella typhimurium [23] = test: Genotoxicity in Salmonella typhimurium by microAmes assay in presence of S9 fraction; assay type: toxicity, organism-based; conditions: salmonella enterica subsp. enterica serovar typhimurium
[24] = biological target: High affinity nerve growth factor receptor (Homo sapiens) (UniProt P04629); test: Inhibition of NTRK1 (unknown origin) at 1 uM after 1 hr
Chain of High affinity nerve growth factor receptor (Homo sapiens) (P04629 33-796 limits assumed): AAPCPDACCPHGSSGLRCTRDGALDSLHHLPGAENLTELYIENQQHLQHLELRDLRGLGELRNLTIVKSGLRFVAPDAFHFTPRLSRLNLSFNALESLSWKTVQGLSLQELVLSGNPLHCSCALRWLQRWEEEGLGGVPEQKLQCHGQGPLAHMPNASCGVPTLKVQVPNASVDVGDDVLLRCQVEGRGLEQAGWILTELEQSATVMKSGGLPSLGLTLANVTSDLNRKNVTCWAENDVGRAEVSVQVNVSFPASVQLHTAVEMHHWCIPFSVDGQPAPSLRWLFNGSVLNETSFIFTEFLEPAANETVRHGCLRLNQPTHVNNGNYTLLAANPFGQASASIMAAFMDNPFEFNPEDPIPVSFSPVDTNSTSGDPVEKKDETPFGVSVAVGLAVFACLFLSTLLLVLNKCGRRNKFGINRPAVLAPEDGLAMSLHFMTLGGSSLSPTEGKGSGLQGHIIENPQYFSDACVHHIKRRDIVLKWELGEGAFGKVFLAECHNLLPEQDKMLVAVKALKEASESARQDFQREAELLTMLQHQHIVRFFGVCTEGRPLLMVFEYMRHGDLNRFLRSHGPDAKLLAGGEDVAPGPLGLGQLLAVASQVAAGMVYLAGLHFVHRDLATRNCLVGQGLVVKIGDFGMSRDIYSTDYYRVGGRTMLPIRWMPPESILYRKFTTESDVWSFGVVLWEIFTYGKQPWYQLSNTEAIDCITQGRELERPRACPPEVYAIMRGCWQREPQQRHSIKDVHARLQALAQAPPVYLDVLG

[25] = AUC in CD1 mouse at 30 mg/kg, po; assay type: ADME, organism-based; set-up: dose 30 mg/kg, route oral; conditions: plasma
[26] = Oral bioavailability in Sprague-Dawley rat at 2 mg/kg; assay type: ADME, organism-based; conditions: in vivo
[27] = biological target: Mitogen-activated protein kinase 14 (Homo sapiens) (UniProt Q16539); test: Inhibition of MAPK14 (unknown origin) at 1 uM after 1 hr
[28] = biological target: Homeodomain-interacting protein kinase 1 (Homo sapiens) (UniProt Q86Z02); test: Inhibition of HIPK1 (unknown origin) at 1 uM after 1 hr
[29] = biological target: Mitogen-activated protein kinase kinase kinase 9 (Homo sapiens) (UniProt P80192); test: Inhibition of MAP3K9 (unknown origin) at 1 uM after 1 hr
[30] = Half life in CD1 mouse at 30 mg/kg, po; assay type: ADME, organism-based; set-up: dose 30 mg/kg, route oral; conditions: in vivo
[31] = biological target: Tyrosine-protein kinase ABL1 (Homo sapiens) (UniProt P00519); test: Inhibition of ABL1 (unknown origin) at 1 uM after 1 hr
[32] = Half life in Sprague-Dawley rat at 2 mg/kg, po; assay type: ADME, organism-based; set-up: dose 2 mg/kg, route oral; conditions: in vivo
[33] = biological target: Tyrosine-protein kinase JAK2 (Homo sapiens) (UniProt O60674); test: Inhibition of JAK2 (unknown origin) at 1 uM after 1 hr
Chain of Tyrosine-protein kinase JAK2 (Homo sapiens) (O60674 whole entry): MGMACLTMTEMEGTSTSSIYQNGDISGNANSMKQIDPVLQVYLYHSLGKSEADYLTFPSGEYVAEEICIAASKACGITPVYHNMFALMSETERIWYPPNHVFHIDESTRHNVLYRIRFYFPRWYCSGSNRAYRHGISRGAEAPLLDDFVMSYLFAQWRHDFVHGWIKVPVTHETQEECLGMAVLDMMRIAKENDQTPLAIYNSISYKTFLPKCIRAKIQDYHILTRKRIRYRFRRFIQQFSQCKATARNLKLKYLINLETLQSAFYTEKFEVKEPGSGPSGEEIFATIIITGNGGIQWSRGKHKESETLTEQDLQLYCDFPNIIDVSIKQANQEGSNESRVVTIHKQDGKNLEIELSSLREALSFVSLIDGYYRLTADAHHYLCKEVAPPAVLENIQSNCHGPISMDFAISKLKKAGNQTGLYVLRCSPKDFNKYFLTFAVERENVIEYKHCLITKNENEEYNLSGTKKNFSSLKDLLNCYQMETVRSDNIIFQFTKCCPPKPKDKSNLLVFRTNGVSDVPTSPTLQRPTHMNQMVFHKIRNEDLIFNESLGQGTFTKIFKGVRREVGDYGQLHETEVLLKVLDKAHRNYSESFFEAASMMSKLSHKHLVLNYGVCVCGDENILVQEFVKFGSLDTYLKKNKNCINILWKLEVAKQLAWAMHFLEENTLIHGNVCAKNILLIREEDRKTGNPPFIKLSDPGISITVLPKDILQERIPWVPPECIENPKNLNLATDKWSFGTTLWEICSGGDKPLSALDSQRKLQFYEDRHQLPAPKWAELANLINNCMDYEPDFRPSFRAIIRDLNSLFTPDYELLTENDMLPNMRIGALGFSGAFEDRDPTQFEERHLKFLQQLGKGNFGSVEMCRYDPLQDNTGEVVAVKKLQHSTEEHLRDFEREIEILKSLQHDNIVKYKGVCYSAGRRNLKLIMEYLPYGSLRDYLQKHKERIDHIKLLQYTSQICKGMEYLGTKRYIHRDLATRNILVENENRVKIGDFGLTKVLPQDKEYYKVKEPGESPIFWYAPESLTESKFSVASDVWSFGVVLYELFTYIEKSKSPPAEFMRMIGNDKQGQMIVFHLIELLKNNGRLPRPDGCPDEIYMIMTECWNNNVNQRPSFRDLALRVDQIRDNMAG

[34] = biological target: Wee1-like protein kinase (Homo sapiens) (UniProt P30291); test: Inhibition of WEE1 (unknown origin) at 1 uM after 1 hr
[35] = biological target: cAMP-dependent protein kinase catalytic subunit alpha (Homo sapiens) (UniProt P17612); test: Inhibition of PRKACA (unknown origin) at 1 uM after 1 hr
[36] = biological target: Mitogen-activated protein kinase kinase kinase kinase 4 (Homo sapiens) (UniProt O95819); test: Inhibition of MAP4K4 (unknown origin) at 1 uM after 1 hr
Salmonella typhimurium [37] = test: Genotoxicity in Salmonella typhimurium by microAmes assay; assay type: toxicity, organism-based; conditions: salmonella enterica subsp. enterica serovar typhimurium
[38] = biological target: Cyclin-dependent kinase 2 (Homo sapiens) (UniProt P24941); test: Inhibition of CDK2 (unknown origin) at 1 uM after 1 hr
[39] = biological target: Epithelial discoidin domain-containing receptor 1 (Homo sapiens) (UniProt Q08345); test: Inhibition of DDR1 (unknown origin) at 1 uM after 1 hr relative to control
[40] = biological target: MAP kinase-interacting serine/threonine-protein kinase 1 (Homo sapiens) (UniProt Q9BUB5); test: Inhibition of MKNK1 (unknown origin) at 1 uM after 1 hr
[41] = Volume of distribution at steady state in Sprague-Dawley rat at 0.5 mg/kg, iv; assay type: ADME, organism-based; set-up: dose 0.5 mg/kg, route intravenous; conditions: in vivo, read-out: Vdss
[42] = biological target: Dual specificity protein kinase CLK4 (Homo sapiens) (UniProt Q9HAZ1); test: Inhibition of CLK4 (unknown origin) at 1 uM after 1 hr
Chain of Dual specificity protein kinase CLK4 (Homo sapiens) (Q9HAZ1 whole entry, looked up): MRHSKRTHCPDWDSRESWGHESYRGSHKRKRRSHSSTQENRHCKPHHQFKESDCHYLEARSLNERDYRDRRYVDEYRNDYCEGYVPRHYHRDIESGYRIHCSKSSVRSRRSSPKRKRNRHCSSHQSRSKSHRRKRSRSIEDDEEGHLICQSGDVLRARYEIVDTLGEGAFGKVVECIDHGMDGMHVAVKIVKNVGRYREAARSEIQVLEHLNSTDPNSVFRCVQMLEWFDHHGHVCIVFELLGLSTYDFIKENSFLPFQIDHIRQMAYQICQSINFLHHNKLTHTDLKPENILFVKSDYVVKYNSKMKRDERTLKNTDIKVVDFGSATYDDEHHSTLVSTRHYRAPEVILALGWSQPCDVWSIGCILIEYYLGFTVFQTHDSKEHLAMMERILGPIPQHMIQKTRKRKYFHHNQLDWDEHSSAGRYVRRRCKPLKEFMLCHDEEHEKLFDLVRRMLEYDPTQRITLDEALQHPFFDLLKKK

[43] = biological target: Rho-associated protein kinase 2 (Homo sapiens) (UniProt O75116); test: Inhibition of ROCK2 (unknown origin) at 1 uM after 1 hr
[44] = Clearance in Sprague-Dawley rat at 0.5 mg/kg, iv; assay type: ADME, organism-based; set-up: dose 0.5 mg/kg, route intravenous; conditions: in vivo
[45] = biological target: Mitogen-activated protein kinase kinase kinase 1 (Homo sapiens) (UniProt Q13233); test: Inhibition of MAP3K1 (unknown origin) at 1 uM after 1 hr

Chain of Non-receptor tyrosine-protein kinase TYK2 (Homo sapiens) (P29597 whole entry): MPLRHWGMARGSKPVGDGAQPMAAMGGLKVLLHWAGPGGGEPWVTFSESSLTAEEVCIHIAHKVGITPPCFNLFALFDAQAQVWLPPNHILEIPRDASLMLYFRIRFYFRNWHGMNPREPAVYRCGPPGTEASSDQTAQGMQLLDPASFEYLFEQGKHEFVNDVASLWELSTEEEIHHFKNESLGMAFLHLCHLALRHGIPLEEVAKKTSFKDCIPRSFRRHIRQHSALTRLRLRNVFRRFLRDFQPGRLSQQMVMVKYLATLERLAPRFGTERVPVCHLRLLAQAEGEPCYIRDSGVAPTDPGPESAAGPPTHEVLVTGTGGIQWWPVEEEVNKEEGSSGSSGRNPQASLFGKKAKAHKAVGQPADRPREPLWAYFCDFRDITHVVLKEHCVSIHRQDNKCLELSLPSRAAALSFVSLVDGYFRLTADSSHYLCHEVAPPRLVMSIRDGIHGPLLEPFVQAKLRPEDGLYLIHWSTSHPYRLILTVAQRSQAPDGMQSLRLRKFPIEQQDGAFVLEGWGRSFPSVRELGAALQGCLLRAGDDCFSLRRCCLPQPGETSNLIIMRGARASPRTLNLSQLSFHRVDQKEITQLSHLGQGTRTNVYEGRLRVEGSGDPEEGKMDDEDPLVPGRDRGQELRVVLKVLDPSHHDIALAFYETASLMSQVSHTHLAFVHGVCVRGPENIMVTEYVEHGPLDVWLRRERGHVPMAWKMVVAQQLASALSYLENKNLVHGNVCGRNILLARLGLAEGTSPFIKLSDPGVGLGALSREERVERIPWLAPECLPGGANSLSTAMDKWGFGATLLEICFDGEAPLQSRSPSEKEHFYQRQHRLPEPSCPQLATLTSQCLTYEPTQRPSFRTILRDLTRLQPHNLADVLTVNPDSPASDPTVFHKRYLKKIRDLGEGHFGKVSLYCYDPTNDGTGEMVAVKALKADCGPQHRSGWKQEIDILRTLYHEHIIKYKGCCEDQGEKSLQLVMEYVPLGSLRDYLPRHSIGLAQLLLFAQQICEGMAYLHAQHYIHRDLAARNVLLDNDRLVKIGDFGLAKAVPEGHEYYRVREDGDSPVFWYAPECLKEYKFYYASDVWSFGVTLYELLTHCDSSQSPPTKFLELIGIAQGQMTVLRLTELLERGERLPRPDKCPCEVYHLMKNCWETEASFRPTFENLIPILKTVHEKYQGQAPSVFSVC

With CC1(C)OC(=O)N([C@H]2CC[C@H](c3cnc(N)c(-c4ncccn4)c3)CC2)[C@H]1c1ccccc1 as the compound, how does the inhibition [1] read?
The inhibition was “inactive”.

And the inhibition [2]?
Its inhibition is “inactive”.

What about the Cmax [3] of the same compound?
Its Cmax is 6.09 µM.

And the inhibition [4]?
The inhibition was “inactive”.

What about the inhibition [5] of the same compound?
Its inhibition is “inactive”.

What about the IC50 [6] of the same compound?
Its IC50 is greater than 85 µM.

And the IC50 [7]?
The IC50 was greater than 170 µM.

And the inhibition [8]?
The inhibition was “inactive”.

And the inhibition [9]?
The inhibition was “inactive”.

And the Cmax [10]?
Its Cmax is 450 nM.

What about the inhibition [11] of the same compound?
The inhibition was “inactive”.

And the inhibition [12]?
The inhibition was “inactive”.

And the inhibition [13]?
The inhibition was “inactive”.

And the inhibition [14]?
The inhibition was “inactive”.

And the half-life [15]?
Its half-life is 216 min.

And the inhibition [16]?
Its inhibition is “inactive”.

What about the inhibition [17] of the same compound?
Its inhibition is “inactive”.

And the AUC [18]?
Its AUC is 1.98 µM·h.

What about the inhibition [19] of the same compound?
Its inhibition is “inactive”.

What about the inhibition [20] of the same compound?
Its inhibition is “inactive”.

And the inhibition [21]?
The inhibition was “inactive”.

And the inhibition [22]?
Its inhibition is “inactive”.

And the Activity (Salmonella typhimurium [23])?
Its Activity is “Non-toxic”.

And the inhibition [24]?
The inhibition was “inactive”.

What about the AUC [25] of the same compound?
The AUC was 36.3 µM·h.

And the bioavailability [26]?
Its bioavailability is 33%.

And the inhibition [27]?
Its inhibition is “inactive”.

What about the inhibition [28] of the same compound?
The inhibition was “inactive”.

And the inhibition [29]?
The inhibition was “inactive”.

What about the half-life [30] of the same compound?
Its half-life is 210 min.

What about the inhibition [31] of the same compound?
The inhibition was “inactive”.

What about the half-life [32] of the same compound?
The half-life was 174 min.

And the inhibition [33]?
Its inhibition is “inactive”.

And the inhibition [34]?
The inhibition was “inactive”.

And the inhibition [35]?
The inhibition was “inactive”.

What about the inhibition [36] of the same compound?
Its inhibition is “inactive”.

And the Activity (Salmonella typhimurium [37])?
Its Activity is “Non-toxic”.

And the inhibition [38]?
The inhibition was “inactive”.

What about the inhibition [39] of the same compound?
Its inhibition is 18%.

What about the inhibition [40] of the same compound?
Its inhibition is “inactive”.

And the Vd [41]?
The Vd was 2.85 L/kg.

What about the inhibition [42] of the same compound?
Its inhibition is “inactive”.

What about the inhibition [43] of the same compound?
The inhibition was “inactive”.

And the clearance [44]?
Its clearance is 12.5 mL/min/kg.

And the inhibition [45]?
Its inhibition is “inactive”.

What does the source list for CC1(C)OC(=O)N(c2ccc(-c3cnc(N)c(-c4ncccn4)c3)cc2)[C@H]1c1ccccc1?
inhibition [1]: inactive; inhibition [2]: inactive; Cmax [3]: 7.88 µM; inhibition [4]: inactive; inhibition [5]: inactive; IC50 [6]: > 85 µM; IC50 [7]: > 170 µM; inhibition [8]: inactive; inhibition [9]: inactive; Cmax [10]: 370 nM; inhibition [11]: inactive; inhibition [12]: inactive; inhibition [13]: inactive; inhibition [14]: inactive; half-life [15]: 258 min; inhibition [16]: inactive; inhibition [17]: inactive; AUC [18]: 2.71 µM·h; inhibition [19]: inactive; inhibition [20]: inactive; inhibition [21]: inactive; inhibition [22]: inactive; Activity (Salmonella typhimurium [23]): Toxic; inhibition [24]: inactive; AUC [25]: 63.3 µM·h; bioavailability [26]: 29%; inhibition [27]: inactive; inhibition [28]: inactive; inhibition [29]: inactive; half-life [30]: 222 min; inhibition [31]: inactive; half-life [32]: 276 min; inhibition [33]: inactive; inhibition [34]: inactive; inhibition [35]: inactive; inhibition [36]: inactive; Activity (Salmonella typhimurium [37]): Toxic; inhibition [38]: inactive; inhibition [39]: inactive; inhibition [40]: inactive; Vd [41]: 2.32 L/kg; inhibition [42]: inactive; inhibition [43]: inactive; clearance [44]: 8.67 mL/min/kg; inhibition [45]: inactive
